System: dT10
Test: Thermal denaturation (UV absorbance melting curve, Tm) of hybrids with complementary oligonucleotide dT10
Type: binding
Conditions: for Tm (°C.) Me2 AsO2 Na: 10 mM sodium cacodylate buffer; for Tm (°C.) Nax PO4: phosphate buffer
Excerpt: Thermal denaturation of an ordered, native structure of a nucleic acid disrupts the base-pair stacking and, as a result, the UV absorbance increases. The change in UV absorbance, known as […], is a measure of base-pairing and base-stacking between the two complementary strands. The UV absorbance profile as a function of temperature is called a melting curve and the midpoint of this curve is defined as the melting temperature, Tm, at which 50% of the double strand is dissociated into its two single strands. Thus, the measurement of UV absorbance melting curves provides qualitative and quantitative structural information about the nucleic acid bound to its complementary ligand. Tm also depends on the concentration of the oligonucleotide and the properties of the solvent (buffer: pH, ionic strength, etc.).
Binding studies were carried out by hybridizing the isolated PENAM described above to its complementary oligonucleotide "dT10 " followed by thermal denaturation and measurement of UV absorbance as a function of temperature. The synthetic oligodeoxynucleotide (ODN) dT10 and its complementary oligodeoxynucleotide dA10 were used as the reference nucleic acids. The samples prepared in phosphate buffer (Nax PO4) can precipitate magnesium phosphate at high temperature during the thermal denaturation cycle. This problem was readily avoided by repeating the experiment in 10 mM sodium cacodylate buffer (Me2 AsO2 Na) instead of the phosphate buffer.

[1] = dT10 + 2KpA10 Km, stoichiometry 1:0:2
[2] = dT10 + KpA10 Km, stoichiometry 1:0:1
[3] = dT10 + dA10 + 2KpA10 Km, stoichiometry 1:1:2
[4] = dT10 + dA10 + KpA10 Km, stoichiometry 1:1:1
[5] = thermal denaturation, summary of Table 1

Substance: H-Lys-{(D/L)-(AdhAla)10 }-Lys-NH2 [KpA10 Km]
- Tm (°C.) Me2 AsO2 Na (2dT10 + KpA10 Km, stoichiometry 2:0:1): 32.28 °C
- Tm (°C.) Me2 AsO2 Na [1]: 32.57 °C
- Tm (°C.) Nax PO4 [1]: 30.8 °C
- Tm (°C.) Me2 AsO2 Na [2]: 31.00 °C
- Tm (°C.) Nax PO4 [2]: 31.26 °C
- Tm (°C.) Me2 AsO2 Na [3]: 32.26 °C
- Tm (°C.) Nax PO4 [3]: 30.07 °C
- Tm (°C.) Me2 AsO2 Na [4]: 31.052 °C
- Tm (°C.) Nax PO4 [4]: 31.41 °C
- Binding to complementary nucleic acid strand [5]: binds to its complementary nucleic acid strand
- Melting temperature compared with reference ODN dT10:dA10 [5]: melt at an even higher temperature than the reference ODN

From patent US5705333A, “Peptide-based nucleic acid mimics(PENAMS)” (The Regents of The University of California, priority 1994, dated 1998)
